Experimental data published in US20230381321A1, “CAMPTOTHECIN CONJUGATES” (priority 2022, published 2023).
pIC50: −log10 of the molar value. Read-outs that look alike come from different tables or passages of the source.

Tests used:
Format in all cases: cell-based
[1] = system: anaplastic large cell lymphoma cells (Karpas299); assay: In vitro potency (CellTiter-Glo, 96 h) on Karpas299; conditions: Homo sapiens, KARPAS-299, 96 h, read-out: Karpas299 IC50
Procedure: (§1) In vitro potency was assessed on multiple cancer cell lines. All cell lines were authenticated by STR profiling at IDEXX Bioresearch and cultured for no more than 2 months after resuscitation. Cells cultured in log-phase growth were seeded for 24 hours in 96-well plates containing […] RPMI 1640 supplemented with 20% FBS. Serial dilutions of antibody-drug conjugates in cell culture media were prepared at 4x working concentrations, and 50 μL of each dilution was added to the 96-well plates. Following addition of test articles, cells were incubated with test articles for 4 days at […]. After 96 hours, growth inhibition was assessed by CellTiterGlo® (Promega, Madison, WI) and luminescence was measured on a plate reader.
(§2) Cell viability was determined by CellTiter-Glo staining after 96h exposure to ADC. ND=Not Determined. In the following tables, “Ex_” refers to a drug linker number. For example, “Ag4-Ex_4a” refers to a conjugate of an Ag4 antibody with drug linker 4a.

[2] = system: B-lymphocyte cancer cells (SU-DHL4); assay: In vitro potency (CellTiter-Glo, 96 h) on SU-DHL4; conditions: Homo sapiens, SU-DHL-4, 96 h, read-out: SU-DHL-4 IC50
Procedure: as §1, §2

[3] = system: acute myeloid leukemia cells (MOLM-13); assay: In vitro potency (CellTiter-Glo, 96 h) on MOLM-13; conditions: Homo sapiens, MOLM-13, 96 h, read-out: MOLM-13 IC50
Procedure: as §1, §2

[4] = In vitro potency (CellTiter-Glo, 96 h) on Ls174T; conditions: Homo sapiens, LS174T, read-out: Ls174T IC50
Procedure: as §1, §2

[5] = system: anaplastic large cell lymphoma cells (DEL); assay: In vitro potency (CellTiter-Glo, 96 h) on DEL; conditions: 96 h, read-out: DEL IC50
Procedure: as §1, §2

[6] = system: breast cancer cells (MDA-MB-231); assay: In vitro potency (CellTiter-Glo, 96 h) on MDA-MB-231; conditions: Homo sapiens, MDA-MB-231, 96 h, read-out: MDAMB 231 IC50
Procedure: as §1, §2

[7] = system: Hodgkin's lymphoma cells (L540cy); assay: In vitro potency (CellTiter-Glo, 96 h) on L540cy; conditions: L540cy, 96 h, read-out: L540cy IC50
Procedure: as §1, §2

[8] = system: pancreatic cancer cells (BxPC3); assay: In vitro potency (CellTiter-Glo, 96 h) on BxPC3; conditions: Homo sapiens, BXPC-3, 96 h, read-out: BxPC3 IC50
Procedure: as §1, §2

[9] = system: renal carcinoma cells (786-O); assay: In vitro potency (CellTiter-Glo, 96 h) on 786-O; conditions: Homo sapiens, 786-0, 96 h, read-out: 786-O IC50
Procedure: as §1, §2

[10] = system: anaplastic large cell lymphoma cells (DELBVR); assay: In vitro potency (CellTiter-Glo, 96 h) on DELBVR; conditions: 96 h, read-out: DELBVR IC50
Procedure: as §1, §2

[11] = CPT free drugs, CellTiter-Glo after 96 h exposure

| Compound | pIC50 [1, 11] | pIC50 [2, 11] | pIC50 [3, 11] | pIC50 [4, 11] | pIC50 [5, 11] | pIC50 [6, 11] | pIC50 [7, 11] | pIC50 [8, 11] | pIC50 [9, 11] | pIC50 [10, 11] | pIC50 [1] | pIC50 [2] | pIC50 [3] | pIC50 ([4]; 96 h) | pIC50 [5] | pIC50 [6] | pIC50 [7] | pIC50 [8] | pIC50 [9] | pIC50 [10] |
| --- | --- | --- | --- | --- | --- | --- | --- | --- | --- | --- | --- | --- | --- | --- | --- | --- | --- | --- | --- | --- |
| CC[C@@]1(O)C(=O)OCc2c1cc1n(c2=O)Cc2c-1nc1cc3c(cc1c2CN(C)CCCN)OCO3 [Compound 8, (5S)-14-[[3-aminopropyl(methyl)amino]methyl]-5-ethyl-5-hydroxy-7,18,20-trioxa-11,24-diazahexacyclo[11.11.0.02,11.04,9.015,23.017,21]tetracosa-1(13),2,4(9),14,16,21,23-heptaene-6,10-dione;2,2,2-trifluoroacetic acid] | 7.27 | 7.82 | 7.33 | 6.88 | 8.10 | 6.90 | 7.36 | 7.28 | 6.95 | 7.80 |  |  |  |  |  |  |  |  |  |  |
| CC[C@@]1(O)C(=O)OCc2c1cc1n(c2=O)Cc2c-1nc1cc3c(cc1c2CNC1CCN(C)CC1)OCO3 [Compound 7w] |  |  |  |  |  |  |  |  |  |  | 8.10 | 8.22 | 7.59 | 7.80 | 8.70 | 7.59 | 8.22 | 7.89 | 7.82 | 8.70 |
| CC[C@@]1(O)C(=O)OCc2c1cc1n(c2=O)Cc2c-1nc1cc3c(cc1c2CNCCCN1CCNCC1)OCO3 [Compound 8d] |  |  |  |  |  |  |  |  |  |  | 8.05 | 8.22 | 7.43 | 7.72 | 8.70 | 7.60 | 8.22 | 7.85 | 7.82 | 8.70 |
| CC[C@@]1(O)C(=O)OCc2c1cc1n(c2=O)Cc2c-1nc1cc3c(cc1c2CNC[C@H](O)CO)OCO3 [Compound 7n] |  |  |  |  |  |  |  |  |  |  | 7.24 | 7.68 | 6.86 | 7.41 | 8.30 | 7.02 | 7.64 | 7.33 | 7.18 | 8.22 |
| CC[C@@]1(O)C(=O)OCc2c1cc1n(c2=O)Cc2c-1nc1cc3c(cc1c2CNCCCN1CCN(C)CC1)OCO3 [Compound 7h] |  |  |  |  |  |  |  |  |  |  | 7.24 | 7.68 | 7.03 | 7.40 | 8.30 | 7.17 | 7.64 | 7.37 | 7.36 | 8.22 |
| CC[C@@]1(O)C(=O)OCc2c1cc1n(c2=O)Cc2c-1nc1cc(F)c(C)c(Cl)c1c2CNC(=O)CN [Compound 13a] |  |  |  |  |  |  |  |  |  |  | 9.00 | 9.00 | 8.70 | 7.36 | 9.52 | 8.30 | 9.00 | 8.30 | 8.22 | 9.00 |
| CC[C@@]1(O)C(=O)OCc2c1cc1n(c2=O)Cc2c-1nc1cc(F)c(C)c(Cl)c1c2CNC(C)=O [Compound 12a] |  |  |  |  |  |  |  |  |  |  | 9.00 | 9.40 | 9.00 | 8.15 | 9.70 | 8.70 | 9.40 | 8.70 | 9.00 | 9.70 |
| CC[C@@]1(O)C(=O)OCc2c1cc1n(c2=O)Cc2c-1nc1cc3c(cc1c2CNC(C)=O)OCO3 [Compound 12b] |  |  |  |  |  |  |  |  |  |  | 8.10 | 9.00 | 8.52 | 7.66 |  | 7.55 | 8.40 | 7.96 | 7.92 | 9.00 |
| CC[C@@]1(O)C(=O)OCc2c1cc1n(c2=O)Cc2c-1nc1cc(Br)c(OC)c(F)c1c2CN [Compound 2ah] | 7.19 | 7.54 | 6.90 | 6.82 | 7.92 | 6.83 | 7.27 | 6.70 | 6.97 | 7.96 |  |  |  |  |  |  |  |  |  |  |
| CC[C@@]1(O)C(=O)OCc2c1cc1n(c2=O)Cc2c-1nc1cc3c(cc1c2CN)COC3 [Compound 2ak] |  |  |  |  |  |  |  |  |  |  |  |  | 6.89 |  |  |  |  |  |  |  |
